Measurements taken from ChEMBL document CHEMBL1201862, “PubChem BioAssay data set” (2004).
Counter-ions that a name gives are not always drawn.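 Protocol summary: plate cells (96-well), add compound at 5 concentrations, incubate 48 h, interpolate endpoints linearly. GI50 = concentration required for 50% inhibition of growth.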 Active and inactive are the calls of the source. Rule as the data show it: active = GI50 up to about 1.1 µM and inactive = higher.

Tests used:
Assay in all cases: growth of human tumour cells (NCI), 48 h
[1] = system: MDA-MB-435
[2] = system: SR
[3] = system: RPMI-8226
[4] = system: SK-MEL-5
[5] = system: ACHN
[6] = system: M14
[7] = system: K562
[8] = system: SK-MEL-28
[9] = system: 786-0
[10] = system: HL-60
[11] = system: OVCAR-4
[12] = system: OVCAR-8
[13] = system: SF-268
[14] = system: NCI-H23
[15] = system: NCI-H226
[16] = system: SF-539
[17] = system: HOP-92
[18] = system: KM12
[19] = system: MDA-MB-231
[20] = system: UACC-257

Row | SMILES | GI50 [1] | GI50 [2] | GI50 [3] | GI50 [4] | GI50 [5] | GI50 [6] | GI50 [7] | GI50 [8] | GI50 [9] | GI50 [10] | GI50 [11] | GI50 [12] | GI50 [13] | GI50 [14] | GI50 [15] | GI50 [16] | GI50 [17] | GI50 [18] | GI50 [19] | GI50 [20]
1 | COC1=C(N2CC2)C(=O)c2nc3n(c2C1=O)CCC3 | 1.45 µM (inactive) | 0.357 µM (active) | 0.0489 µM (active) | 1.29 µM (inactive) | 0.275 µM (active) | 0.22 µM (active) | 0.271 µM (active) | 4.01 µM (inactive) | 0.321 µM (active) | 0.21 µM (active) | 0.22 µM (active) | 1.35 µM (inactive) | 1.6 µM (inactive) | 0.497 µM (active) | 1.87 µM (inactive) | 2.04 µM (inactive) | 3.33 µM (inactive) | 1.37 µM (inactive) | 2.72 µM (inactive) | –
2 | CO/N=C1\CC(NC(=O)CNC(=O)OC(C)(C)C)c2ccsc21 (configuration not stated) | 90.6 µM (inactive) | > 100 µM (inactive) | – | 81.5 µM (inactive) | – | > 100 µM (inactive) | – | > 100 µM (inactive) | – | > 100 µM (inactive) | > 100 µM (inactive) | > 100 µM (inactive) | > 100 µM (inactive) | > 100 µM (inactive) | > 100 µM (inactive) | > 100 µM (inactive) | > 100 µM (inactive) | – | > 100 µM (inactive) | > 100 µM (inactive)
3 | CC(=O)OCC1OC(n2cnc3nc(Br)[nH]c(=O)c32)C(OC(C)=O)C1OC(C)=O (configuration not stated) | > 100 µM (inactive) | > 100 µM (inactive) | > 100 µM (inactive) | > 100 µM (inactive) | > 100 µM (inactive) | > 100 µM (inactive) | > 100 µM (inactive) | – | > 100 µM (inactive) | > 100 µM (inactive) | > 100 µM (inactive) | > 100 µM (inactive) | > 100 µM (inactive) | > 100 µM (inactive) | > 100 µM (inactive) | > 100 µM (inactive) | > 100 µM (inactive) | > 100 µM (inactive) | > 100 µM (inactive) | > 100 µM (inactive)
4 | COc1cc(S(=O)(=O)Nc2nc(-c3ccc(N4C(=O)C(CC(=O)O)SC4c4cccs4)cc3)cs2)ccc1Cl (configuration not stated) | 40 µM (inactive) | 44.9 µM (inactive) | – | > 100 µM (inactive) | > 100 µM (inactive) | > 100 µM (inactive) | 39 µM (inactive) | 70.1 µM (inactive) | 41.8 µM (inactive) | 31 µM (inactive) | 26.7 µM (inactive) | 39 µM (inactive) | 21.9 µM (inactive) | 22.6 µM (inactive) | > 100 µM (inactive) | 27.9 µM (inactive) | 30.9 µM (inactive) | 36.9 µM (inactive) | 81.1 µM (inactive) | 41.9 µM (inactive)
5 | O=c1oc(C(C(F)(F)F)C(F)(F)F)nc2ccccc12 | > 100 µM (inactive) | > 100 µM (inactive) | > 100 µM (inactive) | > 100 µM (inactive) | > 100 µM (inactive) | > 100 µM (inactive) | > 100 µM (inactive) | > 100 µM (inactive) | > 100 µM (inactive) | > 100 µM (inactive) | > 100 µM (inactive) | > 100 µM (inactive) | – | > 100 µM (inactive) | > 100 µM (inactive) | > 100 µM (inactive) | > 100 µM (inactive) | – | > 100 µM (inactive) | > 100 µM (inactive)
6 | CC(=O)C(=N\Nc1ccc(Cl)cc1)/C(C)=N/c1ccc(C)cc1 | 30.4 µM (inactive) | > 100 µM (inactive) | 18.7 µM (inactive) | 19 µM (inactive) | 21.9 µM (inactive) | 22.1 µM (inactive) | 33 µM (inactive) | 48.8 µM (inactive) | 37.2 µM (inactive) | – | > 100 µM (inactive) | 35.6 µM (inactive) | 35.6 µM (inactive) | 38.1 µM (inactive) | 29.6 µM (inactive) | – | 16.6 µM (inactive) | 27.1 µM (inactive) | 37.5 µM (inactive) | 53.2 µM (inactive)
7 | COc1ccccc1N1C(=O)CSC1c1cccc(Oc2ccccc2)c1 (configuration not stated) | 9.82 µM (inactive) | 24.8 µM (inactive) | – | 16.3 µM (inactive) | 20.9 µM (inactive) | 17.7 µM (inactive) | 32.8 µM (inactive) | 17.8 µM (inactive) | 17.7 µM (inactive) | 20.9 µM (inactive) | 18.5 µM (inactive) | 17.9 µM (inactive) | 17.5 µM (inactive) | 20.8 µM (inactive) | 20.3 µM (inactive) | 17.2 µM (inactive) | 12.7 µM (inactive) | 20.1 µM (inactive) | 16.4 µM (inactive) | 16.7 µM (inactive)
8 | CC(=O)O[C@H]1C[C@H]2C(=S)Nc3ccccc3C(=S)N2C1 | > 100 µM (inactive) | > 100 µM (inactive) | > 100 µM (inactive) | > 100 µM (inactive) | > 100 µM (inactive) | > 100 µM (inactive) | > 100 µM (inactive) | > 100 µM (inactive) | > 100 µM (inactive) | – | > 100 µM (inactive) | > 100 µM (inactive) | > 100 µM (inactive) | > 100 µM (inactive) | > 100 µM (inactive) | – | > 100 µM (inactive) | > 100 µM (inactive) | > 100 µM (inactive) | > 100 µM (inactive)
9 | O=C1c2c[nH]nc2C(c2ccccc2)N1c1ccccc1 (configuration not stated) | > 10 µM (inactive) | > 10 µM (inactive) | > 10 µM (inactive) | > 10 µM (inactive) | > 10 µM (inactive) | > 10 µM (inactive) | – | > 10 µM (inactive) | > 10 µM (inactive) | > 10 µM (inactive) | > 10 µM (inactive) | > 10 µM (inactive) | > 10 µM (inactive) | > 10 µM (inactive) | > 10 µM (inactive) | > 10 µM (inactive) | > 10 µM (inactive) | > 10 µM (inactive) | > 10 µM (inactive) | > 10 µM (inactive)
10 | O=C1CCCC(=O)N1n1c(Cc2ccccc2)n[nH]c1=O | > 100 µM (inactive) | > 100 µM (inactive) | > 100 µM (inactive) | > 100 µM (inactive) | > 100 µM (inactive) | > 100 µM (inactive) | > 100 µM (inactive) | > 100 µM (inactive) | > 100 µM (inactive) | > 100 µM (inactive) | > 100 µM (inactive) | > 100 µM (inactive) | > 100 µM (inactive) | > 100 µM (inactive) | > 100 µM (inactive) | – | > 100 µM (inactive) | > 100 µM (inactive) | > 100 µM (inactive) | > 100 µM (inactive)
11 | COC(=O)C(N)CCCC(N)C(=O)NC(C)C(=O)NC(CCC(=O)NCCNCCNc1c2ccccc2nc2cccc([N+](=O)[O-])c12)C(N)=O (configuration not stated) | 6.93 µM (inactive) | 19.7 µM (inactive) | 5.32 µM (inactive) | 6.92 µM (inactive) | 10.2 µM (inactive) | 13.4 µM (inactive) | 3.13 µM (inactive) | 16.6 µM (inactive) | 5.12 µM (inactive) | – | 2.16 µM (inactive) | 8.79 µM (inactive) | 2.44 µM (inactive) | 3.03 µM (inactive) | 10.9 µM (inactive) | 5.19 µM (inactive) | 4.83 µM (inactive) | 10.5 µM (inactive) | 16.9 µM (inactive) | 19.5 µM (inactive)
12 | CC(=O)c1c(CO[N+](=O)[O-])[n+]([O-])c2ccccc2[n+]1[O-] | 79.6 µM (inactive) | 43.9 µM (inactive) | 56.6 µM (inactive) | 68.1 µM (inactive) | 61.1 µM (inactive) | 35.1 µM (inactive) | > 100 µM (inactive) | 72.1 µM (inactive) | > 100 µM (inactive) | – | > 100 µM (inactive) | > 100 µM (inactive) | > 100 µM (inactive) | 45.5 µM (inactive) | 34.2 µM (inactive) | > 100 µM (inactive) | > 100 µM (inactive) | – | 53.7 µM (inactive) | > 100 µM (inactive)
13 | CC(OC(=O)NCn1cc(-c2ccccc2)nn1)c1ccccc1 (configuration not stated) | 28.8 µM (inactive) | 30.2 µM (inactive) | 30.2 µM (inactive) | 17.3 µM (inactive) | 61.2 µM (inactive) | 17.8 µM (inactive) | 31.2 µM (inactive) | 97.9 µM (inactive) | 88.7 µM (inactive) | 27.8 µM (inactive) | > 10 µM (inactive) | 44.4 µM (inactive) | – | 27.1 µM (inactive) | 14.9 µM (inactive) | 38.9 µM (inactive) | 56.2 µM (inactive) | 37.7 µM (inactive) | 34.3 µM (inactive) | 35.1 µM (inactive)
14 | O=C1/C(=C/c2cccc(Br)c2)Cc2ccccc21 | 80 µM (inactive) | 24.5 µM (inactive) | 32.8 µM (inactive) | – | > 100 µM (inactive) | 67.3 µM (inactive) | 58.9 µM (inactive) | > 100 µM (inactive) | > 100 µM (inactive) | 68.7 µM (inactive) | 38.9 µM (inactive) | 78.9 µM (inactive) | 53.6 µM (inactive) | 25.9 µM (inactive) | 21.6 µM (inactive) | 41.8 µM (inactive) | 24.8 µM (inactive) | 19.3 µM (inactive) | 44.9 µM (inactive) | 91 µM (inactive)
15 | Oc1ccc(C(O)C2CCCCN2)cc1O (configuration not stated) [RIMITEROL HYDROBROMIDE] | > 100 µM (inactive) | 71 µM (inactive) | 54.7 µM (inactive) | > 100 µM (inactive) | > 100 µM (inactive) | > 100 µM (inactive) | > 100 µM (inactive) | > 100 µM (inactive) | 18.9 µM (inactive) | – | > 100 µM (inactive) | > 100 µM (inactive) | > 100 µM (inactive) | > 100 µM (inactive) | > 100 µM (inactive) | > 100 µM (inactive) | > 100 µM (inactive) | > 100 µM (inactive) | > 100 µM (inactive) | 57.4 µM (inactive)
